Measured values from patent US12667546B2, “Methods for manipulating cell state transitions in cancer” (AGENCY FOR SCIENCE, TECHNOLOGY AND RESEARCH, priority 2018, dated 2026).
Entries after “also recorded” stand apart in the source; their conditions may differ. Where two headings read alike, the source gives them in different places.

Experiments:
NAMEC8 [1] = experiment: Expression of EMT and lineage markers (qRT-PCR, immunoblot, immunofluorescence) in NAMEC8; assay type: cell-based, human; settings: for expression of EMT and basal/luminal markers: transcript and protein
Protocol: (§1) Cells were rinsed twice in ice-cold PBS. Total RNA was extracted using Trizol (Invitrogen) and column-purified with RNeasy kits (Qiagen). cDNA synthesis was performed with 500 ng of total RNA at 37° C. for 2 h using the SuperScript III First-Strand Synthesis System (Thermo Fisher Scientific), and subsequently diluted 5-fold. mRNA levels were measured with gene-specific primers listed below using the ABI Prism 7900HT Sequence Detection System 2.2 (Applied Biosystems). Results were normalized to GAPDH and analyzed using SDS 2.2 software.
(§2) Cells were harvested and scraped from culture dishes in ice-cold PBS. They were then centrifuged at 12000 rpm for 5 min at 4° C. The pellets were then snap frozen in liquid nitrogen or lysed in ice-cold RIPA lysis buffer (Thermo Scientific) and left on ice for 30 min. Subsequently, the lysates were centrifuged at 12000 rpm for 10 min at 4° C. The supernatants were then aspirated and placed in fresh tubes. Protein concentrations were determined using Coomaisse Blue. 50-80 μg total protein was mixed with NuPAGE™ LDS sample buffer and heated at 70° C. for 10 min. Samples were loaded into NuPAGE™ 4-12% Bis-Tris gels (precast polyacrylamide gel; Invitrogen™). Gel electrophoresis was done at 200V for 1.5 h and then blotted onto nitrocellulose membranes (Trans-Blot Turbo™ transfer pack; Bio-Rad). The membranes were blocked with 5% skimmed milk in Tris-buffered saline (TBS; 1st BASE) with 0.1% Tween-20 (Santa Cruz), and then incubated with primary antibodies overnight at 4° C. Thereafter, the membranes were incubated with a horseradish peroxidase (HRP)-conjugated secondary antibody at room temperature for one hour. Finally, the immunoreactive proteins were visualized by using an enhanced chemiluminescent (ECL) reagent (Thermo Scientific, 34075) with the Chemidoc™ Imager (Bio-Rad, 17001401).
Cell cultures were fixed in 4% paraformaldehyde and permeabilized with 0.25% Triton X-100, followed by blocking with 1% bovine serum albumin in PBST. Cells were incubated in specific primary antibodies, followed by the appropriate secondary antibodies conjugated with Alexa Fluor-488 or -594 (Molecular Probes). Cell nuclei were then stained with DAPI and then viewed and imaged with an Axio Observer D1 epifluorescence microscope with a built-in AxioCamMR3 camera (Zeiss), using the optimal filters and 100-200× magnifications.

NAMEC8 [2] = experiment: Lipid droplet staining (Bodipy); assay type: cell-based, human; settings: NAMEC8, with bexarotene
Protocol: Intracellular lipid droplets were visualized with fluorescent Bodipy dye. Cells in culture were fixed in 4% paraformaldehyde for 15 min at room temperature, rinsed twice with PBS and permeabilized with 0.2% TritonX-100 in PBS for 10 min and incubated with Bodipy diluted in PBS (final concentration 1 μg/ml) for overnight at 4° C. Cells were washed with PBS and stained with DAPI. Fluorescence images were obtained with an Axio Observer D1 epifluorescence microscope with a built-in AxioCamMR3 camera (Zeiss), using the optimal filters and 100-200× magnifications.

SUM159 [3] = experiment: Fatty acid β-oxidation assay (rate of FAO); assay type: cell-based, human; settings: etomoxir alone or together with bexarotene
Protocol: FAO rate was measured using the mitochondrial stress test on the XF96 analyzer (Seahorse Bioscience) according to manufacturer's instructions. Cells were seeded in 96well XF96 cell culture plates at a density of 9000 cells/well in complete media. Cells were then incubated with XF modified DMEM assay medium (Seahorse Bioscience) supplemented with 1 mM glutamine, 0.5 mM glucose, 1% FBS and 0.5 mM carnitine the next day for 18 h. On the day of the assay, cells were incubated with FAO assay medium (KHB: 111 mM NaCl, 4.7 mM KCl, 1.25 mM CaCl2), 2 mM MgSO4, 1.2 mM NaH2 PO4 supplemented with 2.5 mM glucose, 0.5 mM carnitine, 5 mM HEPES, adjusted to pH7.4) 45 min prior to the assay in a non-CO2 incubator. Seahorse XF Cell Mito Stress Test compounds (2 μM oligomycin, 2 μM FCCP, 2 μM rotenone). For inhibition of FAO, etomoxir (40 μM) was added 15 min prior to the assay. Just prior to starting the assay, XF Palmitate-BSA FAO substrate or BSA was added to the cells. Plate was then put into the XF96 analyzer and the XF Cell Mito Stress Test was run using the recommended protocol. Rate of FAO was calculated by the difference in maximal respiration when Palmitate-BSA FAO substrate was supplemented relative to BSA control.

HMLE-Twist ER = experiment: 4-OHT-induced EMT in HMLE-Twist ER cells; assay type: cell-based, human
Protocol: (§3) HMLE-Twist-ER cells were generated as described. For EMT-induction, 100 nM of 4-hydroxytamoxifen in ethanol was added to the culture medium every 48 h to induce Twist expression. Control cells were treated with ethanol. MCF7-Slug+Sox9 cells were generated as previously described. HMLE-Zeb1 cells were generated by infection with FUW-Zeb1 and rTTA. Doxycycline was added to the culture medium every 48 h to induce Zeb1 expression. To generate tumorigenic cells from NAMEC8, cells were infected with pWZL-Blast-Ras. MCF7, MCF7-Ras, SUM159 were maintained as previously described. All cell cultures were maintained at 37° C. with 5% CO2.
as §1
(§4) Cells were harvested and scraped from culture dishes in ice-cold PBS. They were then centrifuged at 12000 rpm for 5 min at 4° C. […] Protein concentrations were determined using Coomaisse Blue. […]

MCF7-Slug+Sox9 = experiment: Doxycycline-induced EMT in MCF7-Slug+Sox9 cells; assay type: cell-based, human
Protocol: as §3, §1, §4

A549 = experiment: TGFβ-induced EMT in lung cancer cell line; assay type: cell-based, human
Protocol: as §2

MCF7-Slug+Sox9 tumors = experiment: Orthotopic MCF7-Slug+Sox9 EMT-induced metastasis model; assay type: in vivo, NSG mice; settings: etomoxir 20 mg/kg per day i.p. plus doxycycline
Protocol: Orthotopic tumor transplantations of MCF7-Slug+Sox9 cells labeled with the tdTomato fluorescent protein were carried out as described previously. Briefly, 1×10^6 cells were resuspended in 30 μl of media containing 50% matrigel and injected into mammary fat pads of NSG mice. Mice were randomly divided into 3 groups (Control, DOX and Etomoxir+DOX). Mice were administered vehicle control (0.9% w/v NaCl) or etomoxir (20 mg/kg) via i.p. injections daily for 3 weeks. Doxycycline was then administered through drinking water for 2 weeks. Mice were sacrificed 10 weeks after doxycycline treatment was stopped and analyzed for lung metastases under a fluorescence microscope. The tumor sections were fixed overnight in 4% paraformaldehyde, immersed in 70% ethanol, and sent to the Advanced Molecular Pathlogy Lab, IMCB for paraffinization. For IF staining, slides were deparaffinized and rehydrated in PBS. The tissues were surrounded with a hydrophobic barrier using a barrier pen and blocked with the blocking buffer (1% bovine serum albumin; BSA, 1% horse serum and 0.2% Triton X-100 in PBS) for 1 hour. They were then washed with PBS and incubated in specific primary antibodies at 4° C. overnight. […] The fluorescence image analysis and the fluorescence overlay image were obtained with the Axio Vision Rel. […]

[4] = in vivo; cited from earlier work
NAMEC8 [5] = experiment: Cell morphology of treated NAMEC8; assay type: cell-based, human; settings: bexarotene, TTNPB, SGC-CBP30, UNC0642, A-485 1 μM, LLY-283, GSK591 20 nM, C-IN-1 500 nM
Protocol: Human mammary epithelial cell lines (HMLE) were generated as described and immortalized using retroviral vectors to express the catalytic subunit of the human telomerase enzyme, hTERT and the SV-40 Large T antigen. NAMEC8 was generated as described. Briefly, HMLE cells were grown to 50% confluency, followed by differential trypsinization for 1 minute with 0.05% trypsin. Detached cells were carefully collected and re-plated at approximately 200 cells per well of a 24-well plate. Upon expansion, wells were screened for populations that were morphologically mesenchymal and can be stably propagated. Clonal and non-clonal NAMEC cell lines were generated. NAMEC8 is a non-clonal line derived from at least 200 mesenchymal cells. HMLE cells and NAMECs were maintained in MEGM (Lonza).

SUM159 [6] = experiment: Expression of EMT and lineage markers in SUM159; assay type: cell-based, human
Protocol: as §1
Cells were harvested and scraped from culture dishes in ice-cold PBS. They were then centrifuged at 12000 rpm for 5 min at 4° C. The pellets were then snap frozen in liquid nitrogen or lysed in ice-cold RIPA lysis buffer (Thermo Scientific) and left on ice for 30 min. Subsequently, the lysates were centrifuged at 12000 rpm for 10 min at 4° C. The supernatants were then aspirated and placed in fresh tubes. Protein concentrations were determined using Coomaisse Blue. 50-80 μg total protein was mixed with NuPAGE™ LDS sample buffer and heated at 70° C. for 10 min. Samples were loaded into NuPAGE™ 4-12% Bis-Tris gels (precast polyacrylamide gel; Invitrogen™). Gel electrophoresis was done at 200V for 1.5 h and then blotted onto nitrocellulose membranes (Trans-Blot Turbo™ transfer pack; Bio-Rad). […]

NAMEC8 [7] = experiment: Mammosphere assay, NAMEC8; assay type: cell-based, human; settings: NAMEC8, pre-treated cells
Protocol: (§5) For mammosphere culture, cells were seeded onto 96-well ultralow-adherence plates at 700 cells/well in Mammocult medium (Stem Cell Technologies) supplemented with 4 μg/ml heparin, 0.5 μg/ml hydrocortisone and 1% methylcellulose. Spheres (>100 μm) were counted at 7-10 days later.

SUM159 [8] = experiment: Mammosphere assay, SUM159; assay type: cell-based, human
Protocol: as §5

NAMEC8 [9] = experiment: Flow cytometry of CD44 and CD24, NAMEC8; assay type: cell-based, human
Protocol: (§6) Cells were harvested as per FACS and resuspended in 100 μl of solution containing CD24-PE and CD44-APC (BD-Biosciences) antibodies diluted in 2% FBS in PBS (1:40 dilution). Cells were stained for 45 min with vortexing every 10 min to ensure even staining. After antibody incubation, cells were washed once and resuspended in 300 μl 2% FBS in PBS. Cells were then filtered through a 40 μm strainer and analyzed on BD LSR Fortessa X-20 Cell Analyzer.

SUM159 [10] = experiment: Flow cytometry of CD44 and CD24, SUM159; assay type: cell-based, human
Protocol: as §6

[11] = system: H3K14ac, H3K18ac and H3K27ac in NAMEC8; experiment: Immunoblot of histone acetylation marks; assay type: cell-based, human
Protocol: as §2

NAMEC8-Ras = experiment: Tumor formation of pre-treated NAMEC8-Ras injected subcutaneously; assay type: in vivo, NSG mice; settings: pre-treated cells, 11 weeks
metastatic TNBC = settings: cited from earlier work

## CCCCCCCCCS(=O)(=O)Nc1ccccc1C(=O)O [FSG67]
NAMEC8 [1]
  expression of EMT and basal/luminal markers: the gain in epithelial-luminal gene markers such as E-cadherin, KRT8, and MUC1 were suppressed
NAMEC8 [2]
  accumulation of lipid droplets during retinoid treatment: clear reductions in the accumulation of lipid droplets during retinoid treatment

## COc1cc(C)c(C(=O)Oc2cc(C)c(C(=O)Oc3cc(C)c(C(=O)NC(C)C(=O)O)c(O)c3)c(O)c2)c(OC)c1 (centres unmarked) [AmidepsineA]
NAMEC8 [1]
  expression of EMT and basal/luminal markers: the gain in epithelial-luminal gene markers such as E-cadherin, KRT8, and MUC1 were suppressed
NAMEC8 [2]
  accumulation of lipid droplets during retinoid treatment: clear reductions in the accumulation of lipid droplets during retinoid treatment

## CCOC(=O)[C@@]1(CCCCCCOc2ccc(Cl)cc2)CO1 [etomoxir]
NAMEC8 [1]; drugs removed for at least seven days
  MET phenotype: induction and durability after drug withdrawal: unable to do so
SUM159 [3]
  FAO activity: completely inhibited FAO activity
HMLE-Twist ER
  4-OHT-induced EMT: dramatically block this transition
MCF7-Slug+Sox9
  Slug+Sox9-induced EMT: blocked Slug+Sox9-induced EMT
A549
  TGFβ-induced EMT: blocking TGFβ-induced EMT
MCF7-Slug+Sox9 tumors
  EMT markers in primary tumors (E-cadherin, Vimentin): retention of the epithelial features
[4]
  clinical outcome / toxicity: failed clinical trials due to liver toxicity

## COc1ccc(CCc2nc3cc(-c4c(C)noc4C)ccc3n2C[C@H](C)N2CCOCC2)cc1Cl [SGC-CBP30]
NAMEC8 [5]
  cell morphology: obvious change in cell morphology from scattered, spindle- and fibroblastic-like cells, to tight clusters of epithelial islands; also recorded: resulted in epithelial-like morphology
NAMEC8 [1]
  expression of EMT and basal/luminal markers: significantly increased epithelial marker E-cadherin expression, as well as downregulated several mesenchymal markers, fibronectin, ZEB1 and SLUG; also recorded: most drastic change as compared to the other compounds
SUM159 [6]
  expression of EMT and lineage markers / epithelial features: increasing epithelial features and decreasing stemness in SUM159
NAMEC8 [7]
  mammosphere formation: significantly reduce the size and number of spheres formed
SUM159 [8]
  mammosphere formation: significant reduction in spheres formation and spheres size
NAMEC8 [9]
  CD44/CD24 surface expression: population of cells with lower CD44 expression was observed; also recorded: Population of cells with decreased CD44 expression was observed
SUM159 [10]
  CD44/CD24 surface expression: slight decrease in CD44 expression, with a population of cells gaining the expression of CD24; also recorded: decreased CD44 expression and higher CD24 expression
[11]
  histone acetylation marks: all the acetylation marks were decreased but to a lesser extent compared to A-485 treatment
NAMEC8-Ras
  tumor formation / tumor size: significantly smaller tumors after 11 weeks; also recorded: significantly reduced tumor formation in mice

## Pembrolizumab: immune checkpoint monotherapy in Keynote 012 and Keynote 086 studies
Metastatic TNBC; Keynote 012, phase 1, monotherapy
  response rate: 18%
Metastatic TNBC; Keynote 086, phase 2, monotherapy
  response rate: 5%

## CNC(=O)Nc1ccc2c(c1)CC[C@@]21OC(=O)N(CC(=O)N(Cc2ccc(F)cc2)[C@@H](C)C(F)(F)F)C1=O [A-485]
NAMEC8 [5]
  cell morphology: tight clusters of epithelial islands were observed; also recorded: Epithelial-like morphology was observed
NAMEC8 [1]
  expression of EMT and basal/luminal markers: upregulation of E-cadherin protein expression, with slight decrease in the mesenchymal markers
NAMEC8 [9]
  CD44/CD24 surface expression: obvious increase in CD44 expression; also recorded: higher CD44 expression
NAMEC8-Ras
  tumor formation / tumor size: Tumor formation was still observed
